The source of these data is patent publication US20220017863A1, “SIRT2-ABLATED CHIMERIC T CELLS” (H. Lee Moffitt Cancer Center and Research Institute, Inc., priority 2019, published 2022).

One series addresses T1, SIRT1 (Homo sapiens, UniProt Q96EB6).
T1 sequence (Q96EB6 1-747): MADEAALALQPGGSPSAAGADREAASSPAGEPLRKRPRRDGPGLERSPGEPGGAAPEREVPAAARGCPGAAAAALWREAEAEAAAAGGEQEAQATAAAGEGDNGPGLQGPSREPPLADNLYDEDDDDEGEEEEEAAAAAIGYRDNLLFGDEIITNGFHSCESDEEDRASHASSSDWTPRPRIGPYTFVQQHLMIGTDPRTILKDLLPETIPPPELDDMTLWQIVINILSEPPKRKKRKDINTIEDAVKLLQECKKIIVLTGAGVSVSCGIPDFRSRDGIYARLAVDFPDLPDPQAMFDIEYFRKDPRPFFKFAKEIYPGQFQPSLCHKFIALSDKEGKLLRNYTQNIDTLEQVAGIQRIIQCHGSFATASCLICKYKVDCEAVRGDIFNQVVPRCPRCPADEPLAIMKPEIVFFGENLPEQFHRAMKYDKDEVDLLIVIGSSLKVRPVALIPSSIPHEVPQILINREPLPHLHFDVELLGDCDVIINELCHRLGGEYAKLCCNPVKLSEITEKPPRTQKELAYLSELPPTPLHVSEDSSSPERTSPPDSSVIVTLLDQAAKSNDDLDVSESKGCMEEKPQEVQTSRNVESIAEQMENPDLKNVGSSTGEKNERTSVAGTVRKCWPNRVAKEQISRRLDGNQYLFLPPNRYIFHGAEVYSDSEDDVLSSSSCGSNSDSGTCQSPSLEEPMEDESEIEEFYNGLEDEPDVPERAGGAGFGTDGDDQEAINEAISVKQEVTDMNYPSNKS
The following applies: cited from earlier work.

Another series addresses T2, SIRT3 (Homo sapiens, UniProt Q9NTG7).
T2 sequence (Q9NTG7 1-399): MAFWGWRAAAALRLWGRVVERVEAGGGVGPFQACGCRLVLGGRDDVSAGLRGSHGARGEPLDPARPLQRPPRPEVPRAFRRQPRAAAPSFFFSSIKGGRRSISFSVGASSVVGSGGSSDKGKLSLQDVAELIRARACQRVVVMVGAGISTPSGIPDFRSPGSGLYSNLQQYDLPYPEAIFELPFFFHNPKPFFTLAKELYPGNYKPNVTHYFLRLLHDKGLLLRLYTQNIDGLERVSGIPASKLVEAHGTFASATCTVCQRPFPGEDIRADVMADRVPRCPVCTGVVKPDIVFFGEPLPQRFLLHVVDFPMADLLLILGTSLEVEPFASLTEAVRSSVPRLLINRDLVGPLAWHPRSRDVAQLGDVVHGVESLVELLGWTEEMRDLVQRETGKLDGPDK
The following applies: cited from earlier work.

The next series addresses T3, SIRT2 (Homo sapiens, UniProt Q8IXJ6).
T3 sequence (Q8IXJ6 1-389): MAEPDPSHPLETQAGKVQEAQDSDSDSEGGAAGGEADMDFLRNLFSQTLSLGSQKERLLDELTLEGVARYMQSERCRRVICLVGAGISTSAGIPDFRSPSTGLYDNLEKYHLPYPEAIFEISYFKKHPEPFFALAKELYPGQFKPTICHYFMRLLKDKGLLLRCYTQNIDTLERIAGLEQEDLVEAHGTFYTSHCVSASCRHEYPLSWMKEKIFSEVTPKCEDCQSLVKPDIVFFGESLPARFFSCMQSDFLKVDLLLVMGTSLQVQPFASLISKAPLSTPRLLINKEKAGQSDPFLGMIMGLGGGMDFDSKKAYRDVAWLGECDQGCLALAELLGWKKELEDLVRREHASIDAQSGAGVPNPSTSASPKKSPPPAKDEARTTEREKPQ
The following applies: cited from earlier work.

The test system of series [1] is CD3+ TILs from B16F10 tumor nodules. Nature of the series: IFN-γ ELISPOT on mouse CD3+ TILs re-challenged with irradiated B16F10 cells. It is filed as cell-based. The following applies: CD3+ TILs from subcutaneous B16F10 nodules of Sirt2KO versus WT mice. The protocol: Lymphocytes from subcutaneous tumors were isolated by dicing the tissues and enzymatic digestion in PBS containing collagenase type 4 (2 mg/ml, Worthington Biochemical) and DNase I (0.25 mg/ml, Sigma) for 45 min with occasional shaking at 37° C. Cell suspensions were then twice filtered through 100 μm and 40 μm cell strainers (ThermoFisher Scientific) to single-cell suspension followed by PBS wash and red blood cell lysis using RBC Lysis Buffer (Biolegend). TILs were finally isolated by density gradient centrifugation using Percoll (GE Healthcare) and further purified using CD3c MicroBeads Kit™ (Miltenyi Biotec) according to the manufacturer's instructions. […]
(§1) The number of IFN-γ producing cells was evaluated in an ELISPOT assay. […] After washing steps and biotinylated anti-IFN-γ antibody (R4-6A2, ThermoFisher Scientific)+Streptavidin-HRP (BD Bioscience) labeling, spots were detected using AEC Substrate Kit (BD Biosciences) and counted using an AID ELISPOT Reader System (Autoimmun Diagnostika GmbH). […]
(§2) The number of IFN-γ producing cells was evaluated in an ELISPOT assay. […] After washing steps and successive biotinylated anti-IFN-γ antibody (R4-6A2, Mabtech, Inc.) and Streptavidin-HRP (BD Bioscience) labeling, spots were detected using AEC Substrate Kit (BD Biosciences) and counted using an AID ELISPOT Reader System (Autoimmun Diagnostika GmbH).

The test system of series [2] is Pmel CD8+ T cells co-cultured with B16F10 target cells. Nature of the series: LDH release cytotoxicity assay of Pmel CD8+ T cells on B16F10 targets. It is filed as cell-based, mouse. The following applies: gp100-stimulated Sirt2KO (Sirt2−/−) Pmel T cells on B16F10 targets, 10 mM 2-DG. On the procedure: Evaluation of functional cytotoxic activity was performed using Pierce™ LDH Cytotoxicity Assay Kit (ThermoFisher Scientific) according to the manufacturer's protocol. B16F10 cells were used as targets. Mouse CD3^+ TILs isolated from subcutaneous B16F10 tumor nodules and CD8^+ enriched T cells from gp100-stimulated Pmel splenocytes were used as effector cells. Briefly, target B16F10 tumor cells were co-cultured with effector cells in 96-well round-bottom microplates at the indicated effector:target ratios. After 6 hours, the percentage of specific LDH release was calculated according to the following formula: % cell lysis=(experimental value effector cells spontaneous release target cells spontaneous release)×100/(target cells maximum release target cells spontaneous release), where “experimental” corresponds to the experimental signal value, “effector spontaneous” to spontaneous release of LDH from effector cells alone, “target spontaneous” to spontaneous release of LDH from target cells alone and “maximum release” to the maximum release of LDH from target cells in medium containing 1% Triton X-100.
Evaluation of functional cytotoxic activity was performed using Pierce™ LDH Cytotoxicity Assay Kit (Thermo Fisher Scientific) according to the manufacturer's protocol. […]
On the technique in general: Release of lactate dehydrogenase indicates damage to the cell membrane.

The next series relates to Pmel T cells. The series can be described thus: IFN-γ ELISPOT on gp100-stimulated Pmel T cells. It is filed as cell-based, mouse. The following applies: gp100-stimulated Sirt2KO (Sirt2−/−) Pmel T cells. The protocol: Spleens and/or Lymph nodes (LN) were collected from WT, Sirt2KO, Pmel/WT, Pmel/Sirt2KO mice and processed into single-cell suspensions. CD3^+, CD4^+ and CD8^+ T cells were negatively enriched using Mouse Pan T cell, CD4^+ T cell and CD8^+ T cell isolation Kits™ respectively according to the manufacturers' instructions. The purity of the isolated cells was confirmed by flow cytometry (>95%). Purified T cells were cultured in completed RPMI 1640 medium (ThermoFisher Scientific) supplemented with 10% (vol/vol) Fetal bovine serum (FBS, Biowest) and 1% (vol/vol) penicillin/streptomycin (P/S, Thomas Scientific Inc). […]
as §1, §2

Bounds are passed on as bounds.

Take `O=C(Nc1cccc([N+](=O)[O-])c1)c1cccc(S(=O)(=O)N2CCCCCC2)c1` [AK-1]: the 50% inhibitory concentration (IC50) at SIRT1 and on SIRT3 was over 50 µM each time.

With `CCOC(=O)c1ccc(NC(=O)c2ccc3c(c2)C2C4CCC(C4)C2C(c2ccccc2)N3)cc1` (stereo not drawn) [AEM2], at SIRT2, the IC50 (in general, the concentration at which inhibition is half-maximal) was 3.8 µM.

On to `O=CC[C@@H](O)[C@H](O)[C@H](O)CO` [2-DG, 2-deoxyglucose], for which the IFN-γ release result in series [1] is “suppressed”; in the series on Pmel T cells, “profoundly suppressed”. In addition, in series [2], the cytotoxicity result is recorded as “profoundly suppressed”.
